US4038388A, “Antimicrobial compositions” (Paterson Zochonis & Company Limited, priority 1976, dated 1977)

Tests used:
Test in all cases: Antibiotic Sensitivity
Type in all cases: cell-based
[1] = test system: Proteus 20029
[2] = test system: Staph. aureus 20477; also: key: R: resistant; S: sensitive; SS: slightly sensitive
[3] = test system: Ps. aeruginosa 5267; also: key: R: resistant; S: sensitive; SS: slightly sensitive
[4] = test system: Ps. multivorans BS; also: key: R: resistant; S: sensitive; SS: slightly sensitive
[5] = test system: Staph. albus 479; also: key: R: resistant; S: sensitive; SS: slightly sensitive
[6] = test system: Staph. albus 474; also: key: R: resistant; S: sensitive; SS: slightly sensitive
[7] = test system: E. coli 566; also: key: R: resistant; S: sensitive; SS: slightly sensitive
[8] = test system: Coliform 608; also: key: R: resistant; S: sensitive; SS: slightly sensitive
[9] = test system: Staph. albus 476; also: key: R: resistant; S: sensitive; SS: slightly sensitive
[10] = test system: Proteus 371
[11] = test system: E. coli 026; also: key: R: resistant; S: sensitive; SS: slightly sensitive
[12] = test system: Candida albicans; also: key: R: resistant; S: sensitive; SS: slightly sensitive
[13] = test system: Ps. aeruginosa 1999; also: key: R: resistant; S: sensitive; SS: slightly sensitive
[14] = test system: Coliform 518; also: key: R: resistant; S: sensitive; SS: slightly sensitive
[15] = test system: Coliform 578; also: key: R: resistant; S: sensitive; SS: slightly sensitive
[16] = test system: Proteus 20523
[17] = test system: Serratia marcescens; also: key: R: resistant; S: sensitive; SS: slightly sensitive
[18] = test system: Strep. faecalis 20190; also: key: R: resistant; S: sensitive; SS: slightly sensitive
[19] = test system: Pr. rettgeri 7475; also: key: R: resistant; S: sensitive; SS: slightly sensitive
[20] = test system: Proteus 20522
[21] = test system: Proteus 20531
[22] = test system: Strep. faecalia 559; also: key: R: resistant; S: sensitive; SS: slightly sensitive
[23] = test system: Staph. pyogenes; also: key: R: resistant; S: sensitive; SS: slightly sensitive
[24] = test system: Staph. aureus 590; also: key: R: resistant; S: sensitive; SS: slightly sensitive
[25] = test system: Kleb, acrogenes 8172; also: key: R: resistant; S: sensitive; SS: slightly sensitive
[26] = test system: Pr. vulgaris 4635; also: key: R: resistant; S: sensitive; SS: slightly sensitive
[27] = test system: Staph. albus 473; also: key: R: resistant; S: sensitive; SS: slightly sensitive
[28] = test system: Ps. multivorans MB; also: key: R: resistant; S: sensitive; SS: slightly sensitive
[29] = test system: E. coli 559; also: key: R: resistant; S: sensitive; SS: slightly sensitive
[30] = test system: Staph. aureus 7447; also: key: R: resistant; S: sensitive; SS: slightly sensitive
[31] = test system: Pr. mirabilis 5887
[32] = test system: E. coli 9395; also: key: R: resistant; S: sensitive; SS: slightly sensitive
[33] = test system: Kleb. aerogenes 22352; also: key: R: resistant; S: sensitive; SS: slightly sensitive
[34] = test system: Pr. mirabilis 25942
[35] = test system: Pr. miribilis 25702; also: key: R: resistant; S: sensitive; SS: slightly sensitive
[36] = test system: E. coli 604; also: key: R: resistant; S: sensitive; SS: slightly sensitive

| SMILES | Antibiotic Sensitivity [2] | Antibiotic Sensitivity [3] | Antibiotic Sensitivity [4] | Antibiotic Sensitivity [5] | Antibiotic Sensitivity [6] | Antibiotic Sensitivity [7] | Antibiotic Sensitivity [8] | Antibiotic Sensitivity [9] | Antibiotic Sensitivity [11] | Antibiotic Sensitivity [12] | Antibiotic Sensitivity [13] | Antibiotic Sensitivity [14] | Antibiotic Sensitivity [15] | Antibiotic Sensitivity [17] | Antibiotic Sensitivity [18] | Antibiotic Sensitivity [19] | Antibiotic Sensitivity [22] | Antibiotic Sensitivity [23] | Antibiotic Sensitivity [24] | Antibiotic Sensitivity [25] | other results |
| --- | --- | --- | --- | --- | --- | --- | --- | --- | --- | --- | --- | --- | --- | --- | --- | --- | --- | --- | --- | --- | --- |
| Oc1ccc(Cl)c2cccnc12 [CHQ, 5-chloro-8-hydroxyquinoline] | S | R | S | S | S | S | S | S | S | S | R | S | S | S | S | S | S | S | S | S | Antibiotic Sensitivity [1]: S; Antibiotic Sensitivity [10]: S; Antibiotic Sensitivity [16]: S; Antibiotic Sensitivity [20]: S; Antibiotic Sensitivity [21]: S; Antibiotic Sensitivity [26]: S; Antibiotic Sensitivity [27]: S; Antibiotic Sensitivity [28]: S; Antibiotic Sensitivity [29]: S; Antibiotic Sensitivity [30]: S; Antibiotic Sensitivity [31]: S; Antibiotic Sensitivity [32]: S; Antibiotic Sensitivity [33]: S; Antibiotic Sensitivity [34]: S; Antibiotic Sensitivity [35]: S; Antibiotic Sensitivity [36]: S |
| CN(C)[C@@H]1C(=O)C(C(N)=O)=C(O)[C@@]2(O)C(=O)C3=C(O)c4c(O)cccc4[C@@](C)(O)[C@H]3C[C@@H]12 [Tetracycline, tetracycline] | R | S | S | R | R | S | S | R | R | R | S | S | S | S | R | S | R | R | R | S | Antibiotic Sensitivity [26]: S; Antibiotic Sensitivity [27]: R; Antibiotic Sensitivity [28]: S; Antibiotic Sensitivity [29]: S; Antibiotic Sensitivity [30]: S; Antibiotic Sensitivity [32]: S; Antibiotic Sensitivity [33]: S; Antibiotic Sensitivity [35]: S; Antibiotic Sensitivity [36]: S |
